From US9580430B2, “9H-pyrimido[4,5-B]indoles and related analogs as BET bromodomain inhibitors” (THE REGENTS OF THE UNIVERSITY OF MICHIGAN, priority 2014, dated 2017)

Columns and labels:
recombinant BRD4 BD2 = target: T1, recombinant BRD4 BD2 (Homo sapiens, UniProt O60885); experiment: Competitive fluorescence-polarization (FP) binding assay, BRD4 BD2; details: competitive FP assay; protein 6 nM, probe […]; read-out: IC50 (nM) BRD4 BD2; further: probe 1.5 nM
T1 construct: for recombinant BRD4 BD1 and BRD4 BD2 proteins
Experimental: (§1) Fluorescence Polarization (FP) competitive binding studies were carried out using a FAM labeled fluorescent probe (ZBA248 or BRD-1F) to determine binding affinities of representative Compounds of the Disclosure for recombinant BRD4 BD1 and BRD4 BD2 proteins. For example, equilibrium dissociation constants (Kd) values of ZBA248 to these […] proteins were determined from protein saturation experiments by monitoring the total fluorescence polarization of mixtures composed with the fluorescent probe at a fixed concentration and proteins with increasing concentrations up to full saturation. Serial dilutions of testing protein were mixed with ZBA248 to a final volume of 200 μl in the assay buffer. […] Plates were incubated at room temperature for 30 minutes with gentle shaking to assure equilibrium. […] Kd values of ZBA248 were calculated by fitting the sigmoidal dose-dependent FP increases as a function of protein concentrations using Graphpad Prism 6.0 software (Graphpad Software, San Diego, Calif.).
(§2) The IC50 and Ki values of representative Compounds of the Disclosure were determined in a competitive binding experiment as described above. Mixtures of 10 μl of the tested compounds in assay buffer with 40% Ethylene Glycol and 190 μl of preincubated protein/probe complex solution in the assay buffer (100 mM potassium phosphate, pH 6.5, 0.01% Triton X-100) were added into assay plates which were incubated at room temperature for 30 minutes with gentle shaking. Final concentrations of proteins were 10 and 6 nM in assays for BD1 and BD2 of BRD4, respectively. […] FP values were measured as described above. IC50 values were determined by nonlinear regression fitting of the competition curves.

recombinant BRD4 BD1 = target: T2, recombinant BRD4 BD1 (Homo sapiens, UniProt O60885); experiment: Competitive fluorescence-polarization (FP) binding assay, BRD4 BD1; details: competitive FP assay; protein 10 nM, probe […]; read-out: IC50 (nM) BRD4 BD1; further: probe 1.5 nM
T2 construct: for recombinant BRD4 BD1 and BRD4 BD2 proteins
Experimental: as §1, §2

MDA-MB-436 = experiment: Cell growth inhibition, MDA-MB-436 breast cancer cells (WST-8); format: cell-based; details: Homo sapiens, MDA-MB-436, 96 h; 4 days; read-out: IC50 (nM) MDA-MB-436 Cell Line (WST assay)
Experimental: All the breast cancer cell lines were obtained from the ATCC. Cell viability was determined using the WST-8 (2-(2-methoxy-4-nitrophenyl)-3-(4-nitrophenyl)-5-(2,4-disulfophenyl)-2H-tetrazolium, monosodium salt) based Cell Counting-8 Kit (Dojindo Molecular Technologies, Inc., Rockville, Md.) according to the manufacture's instruction. […] The absorbance was measured at 450 nm using a SPECTRAmax PLUS plate reader (Molecular Devices, Sunnyvale, Calif.). The IC50 was calculated using the GraphPad Prism 5 software.

MOLM-13 = experiment: Cell growth inhibition, MOLM-13 leukemia cells (CellTiter-Glo); format: cell-based; details: Homo sapiens, MOLM-13, 96 h; 4 days; read-out: IC50 (nM) MOLM-13 Cell Line (CellTiter-Glo assay)
Experimental: Cell growth inhibitory activity of representative Compounds of the Disclosure was determined using CellTiter-Glo® Luminescent Cell Viability Assay. […] Cell viability was determined using the CellTiter-Glo® Luminescent Cell Viability Assay Kit (Promega, Madison, Wis.) according to the manufacture's instruction. Briefly, a volume of CellTiter-Glo® Reagent equal to the volume of cell culture medium was added to each well, and then the plates were incubated at room temperature for 10-20 minutes. The luminescent signal was measured using a Tecan Infinite M1000 multimode microplate reader (Tecan, Morrisville, N.C.). The half maximal inhibitory concentration (IC50) was calculated using the GraphPad Prism 5 software (GraphPad Software, La Jolla, Calif.).

IC50 (recombinant BRD4 BD2)	IC50 (recombinant BRD4 BD1)	IC50 (MDA-MB-436)	IC50 (MOLM-13)	Compound
49.5 nM	57.2 nM	634 nM	453 nM	COc1cc2c(cc1-c1c(C)noc1C)[nH]c1nc(C)nc(Nc3ccnn3C)c12 [Cpd. No. 172, 7-(3,5-dimethylisoxazol-4-yl)-6-methoxy-2-methyl-N-(1-methyl-1H-pyrazol-5-yl)-9H-pyrimido[4,5-b]indol-4-amine]
10.6 nM	11.4 nM	26 nM	38.8 nM	COc1cc2c(cc1-c1c(C)noc1C)[nH]c1nc(C)nc(Nc3cc(C)nn3C3CCC3)c12 [Cpd. No. 119, N-(1-Cyclobutyl-3-methyl-1H-pyrazol-5-yl)-7-(3,5-dimethylisoxazol-4-yl)-6-methoxy-2-methyl-9H-pyrimido[4,5-b]indol-4-amine]
276 nM	183 nM	731 nM	629 nM	COc1cc2c(cc1-c1c(C)noc1C)[nH]c1nc(C)nc(Nc3noc(C)c3C)c12 [Cpd. No. 222, N-(7-(3,5-dimethylisoxazol-4-yl)-6-methoxy-2-methyl-9H-pyrimido[4,5-b]indol-4-yl)-4,5-dimethylisoxazol-3-amine]
3.7 nM	2.1 nM	12.8 nM	3.2 nM	COc1cc2c(cc1-c1c(C)noc1C)[nH]c1nc(C)nc(Nc3c(C)c(C)nn3C3CC3)c12 [Cpd. No. 188, N-(1-cyclopropyl-3,4-dimethyl-1H-pyrazol-5-yl)-7-(3,5-dimethylisoxazol-4-yl)-6-methoxy-2-methyl-9H-pyrimido[4,5-b]indol-4-amine]
57.7 nM	27.9 nM	175 nM	98 nM	CCn1nc(C)c(C2CC2)c1Nc1nc(C)nc2[nH]c3cc(-c4c(C)noc4C)c(OC)cc3c12 [Cpd. No. 143, N-(4-Cyclopropyl-1-ethyl-3-methyl-1H-pyrazol-5-yl)-7-(3,5-dimethylisoxazol-4-yl)-6-methoxy-2-methyl-9H-pyrimido[4,5-b]indol-4-amine]
10.9 nM	10.5 nM	121 nM	38.8 nM	COc1cc2c(cc1-c1c(C)noc1C)[nH]c1nc(C)nc(Nc3c(C)c(C)nn3C3CCC3)c12 [Cpd. No. 187, N-(1-cyclobutyl-3,4-dimethyl-1H-pyrazol-5-yl)-7-(3,5-dimethylisoxazol-4-yl)-6-methoxy-2-methyl-9H-pyrimido[4,5-b]indol-4-amine]
1.3 nM	5.6 nM	57.6 nM	30.2 nM	COc1cc2c(cc1-c1c(C)noc1C)[nH]c1nc(C)nc(Nc3c(C)cnn3C3CCCC3)c12 [Cpd. No. 135, N-(1-Cyclopentyl-4-methyl-1H-pyrazol-5-yl)-7-(3,5-dimethylisoxazol-4-yl)-6-methoxy-2-methyl-9H-pyrimido[4,5-b]indol-4-amine]
23.6 nM	15.6 nM	98 nM	34.8 nM	CCc1nn(C)cc1Nc1nc(C)nc2[nH]c3cc(-c4c(C)noc4C)c(OC)cc3c12 [Cpd. No. 182, 7-(3,5-dimethylisoxazol-4-yl)-N-(3-ethyl-1-methyl-1H-pyrazol-4-yl)-6-methoxy-2-methyl-9H-pyrimido[4,5-b]indol-4-amine]

The remaining lines, values behind:

Compound	IC50 (recombinant BRD4 BD2)	IC50 (recombinant BRD4 BD1)	IC50 (MDA-MB-436)	IC50 (MOLM-13)
COc1cc2c(cc1-c1c(C)noc1C)[nH]c1nc(C)nc(Nc3cccc4nc(C)ccc34)c12 [Cpd. No. 228, 7-(3,5-dimethylisoxazol-4-yl)-6-methoxy-2-methyl-N-(2-methylquinolin-5-yl)-9H-pyrimido[4,5-b]indol-4-amine]	26 nM	25 nM	129 nM	87 nM
COc1cc2c(cc1-c1c(C)noc1C)[nH]c1nc(C)nc(Nc3n[nH]c(C)c3-c3ccccc3)c12 [Cpd. No. 5, 7-(3,5-Dimethylisoxazol-4-yl)-6-methoxy-2-methyl-N-(5-methyl-4-phenyl-1H-pyrazol-3-yl)-9H-pyrimido[4,5-b]indol-4-amine]	381 nM	340 nM	719 nM	475 nM
COc1cc2c(cc1-c1c(C)noc1C)[nH]c1nc(C)nc(Oc3ccnc4ccccc34)c12 [Cpd. No. 104, 4-(6-methoxy-2-methyl-4-(quinolin-4-yloxy)-9H-pyrimido[4,5-b]indol-7-yl)-3,5-dimethylisoxazole]	810 nM	> 1000 nM	3.4 nM	603 nM
COc1cc2c(cc1-c1c(C)noc1C)[nH]c1nc(C)nc(Nc3cc(Cl)ccc3F)c12 [Cpd. No. 224, N-(5-chloro-2-fluorophenyl)-7-(3,5-dimethylisoxazol-4-yl)-6-methoxy-2-methyl-9H-pyrimido[4,5-b]indol-4-amine]	33 nM	105 nM	740 nM	192 nM
COc1cc2c(cc1-c1c(C)noc1C)[nH]c1nc(C)nc(Nc3cc(C)ccn3)c12 [Cpd. No. 110, 7-(3,5-dimethylisoxazol-4-yl)-6-methoxy-2-methyl-N-(4-methylpyridin-2-yl)-9H-pyrimido[4,5-b]indol-4-amine]	33 nM	73 nM	354 nM	16 nM
COc1cc2c(cc1-c1c(C)noc1C)[nH]c1nc(C)nc(Nc3cc(C(C)(C)C)n[nH]3)c12 [Cpd. No. 126, N-(3-(tert-Butyl)-1H-pyrazol-5-yl)-7-(3,5-dimethylisoxazol-4-yl)-6-methoxy-2-methyl-9H-pyrimido[4,5-b]indol-4-amine]	32.8 nM	11 nM	140 nM	65.3 nM
COc1cc2c(cc1-c1c(C)noc1C)[nH]c1nc(C)nc(Nc3ccccc3)c12 [Cpd. No. 226, 7-(3,5-dimethylisoxazol-4-yl)-6-methoxy-2-methyl-N-phenyl-9H-pyrimido[4,5-b]indol-4-amine]	20 nM	21 nM	91 nM	94 nM
COc1cc2c(cc1-c1c(C)noc1C)[nH]c1nc(C)nc(Nc3nn(C)c4cc(F)ccc34)c12 [Cpd. No. 59, 7-(3,5-Dimethylisoxazol-4-yl)-N-(6-fluoro-1-methyl-1H-indazol-3-yl)-6-methoxy-2-methyl-9H-pyrimido[4,5-b]indol-4-amine]	174 nM	90.5 nM	535 nM	401 nM
COc1cc2c(cc1-c1c(C)noc1C)[nH]c1nc(C)nc(Nc3ccnn3C(C)(C)C)c12 [Cpd. No. 183, N-(1-(tert-butyl)-1H-pyrazol-5-yl)-7-(3,5-dimethylisoxazol-4-yl)-6-methoxy-2-methyl-9H-pyrimido[4,5-b]indol-4-amine]	6.1 nM	9.6 nM	83.7 nM	29.7 nM
COc1cc2c(cc1-c1c(C)noc1C)[nH]c1nc(C)nc(Nc3cc(F)cc(Cl)c3)c12 [Cpd. No. 225, N-(3-chloro-5-fluorophenyl)-7-(3,5-dimethylisoxazol-4-yl)-6-methoxy-2-methyl-9H-pyrimido[4,5-b]indol-4-amine]	108 nM	213 nM	315 nM	189 nM
COc1cc2c(cc1-c1c(C)noc1C)[nH]c1nc(C)nc(Nc3cccc(C)n3)c12 [Cpd. No. 111, 7-(3,5-dimethylisoxazol-4-yl)-6-methoxy-2-methyl-N-(6-methylpyridin-2-yl)-9H-pyrimido[4,5-b]indol-4-amine]	218 nM	312 nM	1100 nM	7 nM
